Measured values taken from PubChem BioAssay (NCI).
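Following 48 hours of exposure in 96-well plates, responses at five concentrations were used to interpolate endpoints linearly. GI50: concentration for 50% inhibition of growth. TGI denotes the concentration required for complete inhibition of growth.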

Assays:
Experiment in all cases: growth of human tumour cells (NCI), 48 h
[1] = tested on: 786-0 renal
[2] = tested on: A498 renal
[3] = tested on: A549 NSCLC
[4] = tested on: ACHN renal
[5] = tested on: BT-549 breast
[6] = tested on: CAKI-1 renal
[7] = tested on: CCRF-CEM leukemia
[8] = tested on: COLO 205 colon
[9] = tested on: DU-145 prostate
[10] = tested on: EKVX NSCLC
[11] = tested on: HCC-2998 colon
[12] = tested on: HCT-116 colon
[13] = tested on: HCT-15 colon
[14] = tested on: HL-60(TB) leukemia
[15] = tested on: HOP-62 NSCLC
[16] = tested on: HOP-92 NSCLC
[17] = tested on: HS 578T breast
[18] = tested on: HT29 colon
[19] = tested on: IGROV1 ovarian
[20] = tested on: K-562 leukemia
[21] = tested on: KM12 colon
[22] = tested on: LOX IMVI melanoma
[23] = tested on: M14 melanoma
[24] = tested on: MALME-3M melanoma
[25] = tested on: MCF7 breast
[26] = tested on: MDA-MB-231 breast
[27] = tested on: MDA-MB-435
[28] = tested on: MOLT-4 leukemia
[29] = tested on: NCI-H226 lung
[30] = tested on: NCI-H460 lung
[31] = tested on: NCI-H522 lung
[32] = tested on: NCI/ADR-RES ovarian
[33] = tested on: OVCAR-3 ovarian
[34] = tested on: OVCAR-4 ovarian
[35] = tested on: OVCAR-5 ovarian
[36] = tested on: OVCAR-8 ovarian
[37] = tested on: PC-3 prostate
[38] = tested on: RPMI-8226 leukemia
[39] = tested on: RXF 393 renal
[40] = tested on: SF-268 CNS
[41] = tested on: SF-295 CNS
[42] = tested on: SF-539 CNS
[43] = tested on: SK-MEL-2 melanoma
[44] = tested on: SK-MEL-28 melanoma
[45] = tested on: SK-MEL-5 melanoma
[46] = tested on: SK-OV-3 ovarian
[47] = tested on: SN12C renal
[48] = tested on: SNB-19 CNS
[49] = tested on: SNB-75 CNS
[50] = tested on: SR leukemia
[51] = tested on: SW-620 colon
[52] = tested on: T-47D breast
[53] = tested on: TK-10 renal
[54] = tested on: U251 CNS
[55] = tested on: UACC-257 melanoma
[56] = tested on: UACC-62 melanoma
[57] = tested on: UO-31 renal
[58] = tested on: NCI-H23 lung

With `C/C(=C(/c1ccc(O)cc1)c1ccc(OCCN2CCCC2)cc1)c1ccc(Cl)cc1` the GI50 [1] was 1.65 µM, the TGI [1] was 3.16 µM and the GI50 [2] was 16.6 µM. The TGI [2] was 32.3 µM, the GI50 [3] was 7.58 µM and the TGI [3] was 20.5 µM. For the same compound, the GI50 [4] was 3.35 µM, the TGI [4] was 11.9 µM and the GI50 [5] was 8.98 µM. It also gave a TGI [5] of 21.1 µM, a GI50 [6] of 2.07 µM and a TGI [6] of 6.39 µM. For the same compound, the GI50 [7] was 2.41 µM, the TGI [7] was 7.38 µM and the GI50 [8] was 1.64 µM. The TGI [8] was 3.14 µM, the GI50 [9] was 4.54 µM and the TGI [9] was 15.7 µM. It also gave a GI50 [10] of 5.84 µM, a TGI [10] of 18.7 µM and a GI50 [11] of 2.06 µM. The TGI [11] was 4.21 µM, the GI50 [12] was 1.63 µM and the TGI [12] was 3.21 µM. For the same compound, the GI50 [13] was 1.99 µM, the TGI [13] was 4.62 µM and the GI50 [14] was 2.09 µM. For the same compound, the TGI [14] was 4.11 µM, the GI50 [15] was 3.99 µM and the TGI [15] was 15 µM. For the same compound, the GI50 [16] was 2.38 µM, the TGI [16] was 9.63 µM and the GI50 [17] was 2.56 µM. It also gave a TGI [17] of 8.36 µM, a GI50 [18] of 1.73 µM and a TGI [18] of 3.41 µM. For the same compound, the GI50 [19] was 4.62 µM, the TGI [19] was 17.5 µM and the GI50 [20] was 1.64 µM. The TGI [20] was 3.94 µM, the GI50 [21] was 3.39 µM and the TGI [21] was 12.2 µM. The GI50 [22] was 1.71 µM, the TGI [22] was 3.17 µM and the GI50 [23] was 1.69 µM. It also gave a TGI [23] of 3.23 µM, a GI50 [24] of 1.64 µM and a TGI [24] of 3.11 µM. For the same compound, the GI50 [25] was 0.0364 µM, the TGI [25] was 3.26 µM and the GI50 [26] was 3.52 µM. For the same compound, the TGI [26] was 13.1 µM, the GI50 [27] was 1.72 µM and the TGI [27] was 3.21 µM. The GI50 [28] was 2.52 µM, the TGI [28] was 6.02 µM and the GI50 [29] was 10.8 µM. For the same compound, the TGI [29] was 32.4 µM, the GI50 [30] was 1.8 µM and the TGI [30] was 3.33 µM. It also gave a GI50 [31] of 1.83 µM, a TGI [31] of 4.11 µM and a GI50 [32] of 3.68 µM. For the same compound, the TGI [32] was 14.2 µM, the GI50 [33] was 3.05 µM and the TGI [33] was 11.8 µM. For the same compound, the GI50 [34] was 4.78 µM, the TGI [34] was 17.2 µM and the GI50 [35] was 6.26 µM. It also gave a TGI [35] of 18.8 µM, a GI50 [36] of 2.82 µM and a TGI [36] of 8.04 µM. It also gave a GI50 [37] of 2.94 µM, a TGI [37] of 10.8 µM and a GI50 [38] of 2.24 µM. The TGI [38] was 5.52 µM, the GI50 [39] was 1.63 µM and the TGI [39] was 3.23 µM. For the same compound, the GI50 [40] was 4.78 µM, the TGI [40] was 20 µM and the GI50 [41] was 2.16 µM. For the same compound, the TGI [41] was 4.77 µM, the GI50 [42] was 1.69 µM and the TGI [42] was 3.24 µM. It also gave a GI50 [43] of 7.37 µM, a TGI [43] of 20.5 µM and a GI50 [44] of 1.75 µM. It also gave a TGI [44] of 3.21 µM, a GI50 [45] of 1.78 µM and a TGI [45] of 3.23 µM. The GI50 [46] was 9.59 µM, the TGI [46] was 21.5 µM and the GI50 [47] was 5.21 µM. For the same compound, the TGI [47] was 18.2 µM, the GI50 [48] was 3.85 µM and the TGI [48] was 13.8 µM. The GI50 [49] was 3.06 µM, the TGI [49] was 16.6 µM and the GI50 [50] was 1.81 µM. For the same compound, the TGI [50] was 4.71 µM, the GI50 [51] was 1.69 µM and the TGI [51] was 3.24 µM. The GI50 [52] was 1.54 µM, the TGI [52] was 10.4 µM and the GI50 [53] was 13.6 µM. The TGI [53] was 27.3 µM, the GI50 [54] was 2.03 µM and the TGI [54] was 4.59 µM. The GI50 [55] was 1.78 µM, the TGI [55] was 3.55 µM and the GI50 [56] was 2.04 µM. For the same compound, the TGI [56] was 4.57 µM, the GI50 [57] was 2.51 µM and the TGI [57] was 11.4 µM.

For `N#C/C(=N\Nc1ccc(F)cc1)C(=O)Nc1cc(-c2ccccc2)nn1-c1ccccc1`, the GI50 [1] was 3.41 µM, the TGI [1] was 14 µM and the GI50 [2] was 0.141 µM. For the same compound, the TGI [2] was 2.86 µM, the GI50 [3] was 2.45 µM and the TGI [3] was 15.6 µM. It also gave a GI50 [4] of 2.55 µM, a TGI [4] of 10.5 µM and a GI50 [5] of 2.11 µM. The TGI [5] was 11.2 µM, the GI50 [6] was 1.56 µM and the TGI [6] was 8.72 µM. It also gave a GI50 [7] of 1.21 µM, a TGI [7] of 9.31 µM and a GI50 [8] of 1.82 µM. For the same compound, the TGI [8] was 3.6 µM, the GI50 [9] was 3.62 µM and the TGI [9] was 20.8 µM. It also gave a GI50 [10] of 2.84 µM, a TGI [10] of 15.3 µM and a GI50 [11] of 3.61 µM. The TGI [11] was 19.3 µM, the GI50 [12] was 2.16 µM and the TGI [12] was 11.5 µM. The GI50 [13] was 2.34 µM, the TGI [13] was 45.4 µM and the GI50 [14] was 1.89 µM. The TGI [14] was 5.43 µM, the GI50 [15] was 2.69 µM and the TGI [15] was 11.2 µM. It also gave a GI50 [16] of 0.427 µM, a TGI [16] of 3.85 µM and a GI50 [17] of 3.39 µM. For the same compound, the TGI [17] was 53.8 µM, the GI50 [18] was 3.07 µM and the TGI [18] was 11.6 µM. It also gave a GI50 [19] of 3.69 µM, a TGI [19] of 18.3 µM and a GI50 [20] of 1.45 µM. The TGI [20] was 12.8 µM, the GI50 [21] was 2.75 µM and the TGI [21] was 33.4 µM. The GI50 [22] was 4.54 µM, the TGI [22] was 17.7 µM and the GI50 [23] was 2.84 µM. For the same compound, the TGI [23] was > 100 µM, the GI50 [24] was 1.85 µM and the TGI [24] was 13.4 µM. For the same compound, the GI50 [25] was 2.11 µM, the TGI [25] was 11.4 µM and the GI50 [26] was 1.99 µM. For the same compound, the TGI [26] was 5.6 µM, the GI50 [27] was 2.55 µM and the TGI [27] was > 100 µM. It also gave a GI50 [28] of 2.16 µM, a TGI [28] of 9.92 µM and a GI50 [29] of 2.84 µM. For the same compound, the TGI [29] was 13.7 µM, the GI50 [58] was 1.75 µM and the TGI [58] was 10.6 µM. The GI50 [30] was 2.02 µM, the TGI [30] was 10.2 µM and the GI50 [32] was 2.85 µM. For the same compound, the TGI [32] was 12.1 µM, the GI50 [33] was 2.4 µM and the TGI [33] was 15.6 µM. The GI50 [34] was 2.39 µM, the TGI [34] was 21.8 µM and the GI50 [35] was 3.52 µM. For the same compound, the TGI [35] was 17.2 µM, the GI50 [36] was 2.61 µM and the TGI [36] was 63.8 µM. For the same compound, the GI50 [37] was 1.77 µM, the TGI [37] was 8.7 µM and the GI50 [38] was 0.75 µM. It also gave a TGI [38] of 4.48 µM, a GI50 [39] of 2.24 µM and a TGI [39] of 7 µM. The GI50 [40] was 2.37 µM, the TGI [40] was 25.9 µM and the GI50 [41] was 1.66 µM. The TGI [41] was 5.75 µM, the GI50 [42] was 3.26 µM and the TGI [42] was 12.8 µM. For the same compound, the GI50 [43] was 1.22 µM, the TGI [43] was 5.01 µM and the GI50 [44] was 3.35 µM. The TGI [44] was 77.2 µM, the GI50 [45] was 0.821 µM and the TGI [45] was 3.16 µM. It also gave a GI50 [46] of 1.61 µM, a TGI [46] of 6.39 µM and a GI50 [47] of 1.83 µM. The TGI [47] was 8.45 µM, the GI50 [48] was 2.99 µM and the TGI [48] was 13.4 µM. It also gave a GI50 [49] of 1.93 µM, a TGI [49] of 8.45 µM and a GI50 [50] of 2.27 µM. It also gave a TGI [50] of 8.74 µM, a GI50 [51] of 3.16 µM and a TGI [51] of 20.4 µM. For the same compound, the GI50 [52] was 1.63 µM, the TGI [52] was > 100 µM and the GI50 [53] was 3.43 µM. The TGI [53] was 16.2 µM, the GI50 [54] was 3.04 µM and the TGI [54] was 13.2 µM. It also gave a GI50 [55] of 1.54 µM, a TGI [55] of 8.69 µM and a GI50 [56] of 0.853 µM. For the same compound, the TGI [56] was 17 µM, the GI50 [57] was 2.5 µM and the TGI [57] was 13.4 µM.
